Data from the NIST ThermoML archive (doi:10.1016/j.jct.2006.09.012).
“And” between values parts separate entries of the source, which are not always exact repeats. Equal values may be shown once. ± gives the expanded uncertainty stated by the source.

Conditions: 273.16 K, Gas, Buoyancy - hydrostatic balance with magnetic suspension - two sinkers

## [He] [helium]
1956.5 kPa
  mass density: 3.4135 ± 0.003 kg/m3 and 3.4134 ± 0.003 kg/m3
3626.6 kPa
  mass density: 6.273 ± 0.0034 kg/m3 and 6.2731 ± 0.0034 kg/m3
3626.7 kPa
  mass density: 6.2732 ± 0.0034 kg/m3
3626.8 kPa
  mass density: 6.2735 ± 0.0034 kg/m3
3926.1 kPa
  mass density: 6.7802 ± 0.0033 kg/m3
3926.2 kPa
  mass density: 6.7804 ± 0.0033 kg/m3 and 6.7802 ± 0.0033 kg/m3 and 6.7803 ± 0.0033 kg/m3
3952.8 kPa
  mass density: 6.8257 ± 0.0034 kg/m3
3952.9 kPa
  mass density: 6.8257 ± 0.0034 kg/m3
3975.1 kPa
  mass density: 6.8634 ± 0.0033 kg/m3
3975.2 kPa
  mass density: 6.8633 ± 0.0033 kg/m3 and 6.8635 ± 0.0033 kg/m3
7764.9 kPa
  mass density: 13.1534 ± 0.0081 kg/m3
7765.3 kPa
  mass density: 13.1538 ± 0.0081 kg/m3
7765.7 kPa
  mass density: 13.1545 ± 0.0081 kg/m3
7766.1 kPa
  mass density: 13.1555 ± 0.0081 kg/m3
7766.6 kPa
  mass density: 13.1563 ± 0.0081 kg/m3
7916 kPa
  mass density: 13.399 ± 0.0084 kg/m3
7916.1 kPa
  mass density: 13.3992 ± 0.0084 kg/m3 and 13.399 ± 0.0084 kg/m3 and 13.3991 ± 0.0084 kg/m3
7973.3 kPa
  mass density: 13.4919 ± 0.0083 kg/m3
7973.4 kPa
  mass density: 13.4923 ± 0.0083 kg/m3 and 13.4922 ± 0.0083 kg/m3 and 13.4921 ± 0.0083 kg/m3
8006.1 kPa
  mass density: 13.5452 ± 0.0083 kg/m3
8006.2 kPa
  mass density: 13.5452 ± 0.0083 kg/m3
11783 kPa
  mass density: 19.5712 ± 0.012 kg/m3 [middle of 5 runs]
11830 kPa
  mass density: 19.6435 ± 0.017 kg/m3 [middle of 5 runs]
11855 kPa
  mass density: 19.6832 ± 0.0097 kg/m3 [middle of 5 runs]
12056 kPa
  mass density: 19.9988 ± 0.0092 kg/m3 [middle of 5 runs]
15586 kPa
  mass density: 25.4233 ± 0.013 kg/m3 and 25.4234 ± 0.013 kg/m3
15587 kPa
  mass density: 25.4235 ± 0.013 kg/m3 and 25.4232 ± 0.013 kg/m3
15980 kPa
  mass density: 26.017 ± 0.011 kg/m3 [middle of 5 runs]
16077 kPa
  mass density: 26.1628 ± 0.011 kg/m3 and 26.1631 ± 0.011 kg/m3
16078 kPa
  mass density: 26.164 ± 0.011 kg/m3 and 26.1636 ± 0.011 kg/m3 and 26.1633 ± 0.011 kg/m3
16090 kPa
  mass density: 26.1822 ± 0.011 kg/m3 [middle of 5 runs]
19645 kPa
  mass density: 31.445 ± 0.018 kg/m3 [middle of 4 runs]
19708 kPa
  mass density: 31.5381 ± 0.018 kg/m3 and 31.5379 ± 0.018 kg/m3
19709 kPa
  mass density: 31.5382 ± 0.018 kg/m3 and 31.5385 ± 0.018 kg/m3 and 31.5386 ± 0.018 kg/m3
19869 kPa
  mass density: 31.7712 ± 0.016 kg/m3 and 31.7709 ± 0.016 kg/m3
19870 kPa
  mass density: 31.7727 ± 0.016 kg/m3 and 31.7718 ± 0.016 kg/m3 and 31.7722 ± 0.016 kg/m3
20242 kPa
  mass density: 32.3124 ± 0.016 kg/m3 [middle of 4 runs]
20243 kPa
  mass density: 32.314 ± 0.016 kg/m3
25434 kPa
  mass density: 39.6666 ± 0.023 kg/m3 and 39.6662 ± 0.023 kg/m3 and 39.6672 ± 0.023 kg/m3
25435 kPa
  mass density: 39.6682 ± 0.023 kg/m3 and 39.6678 ± 0.023 kg/m3
25464 kPa
  mass density: 39.7083 ± 0.023 kg/m3
25465 kPa
  mass density: 39.7092 ± 0.023 kg/m3
25466 kPa
  mass density: 39.7107 ± 0.023 kg/m3 and 39.7113 ± 0.023 kg/m3 and 39.7099 ± 0.023 kg/m3
25915 kPa
  mass density: 40.3302 ± 0.022 kg/m3 and 40.3307 ± 0.022 kg/m3 and 40.3313 ± 0.022 kg/m3
25916 kPa
  mass density: 40.3324 ± 0.022 kg/m3 and 40.3317 ± 0.022 kg/m3
25964 kPa
  mass density: 40.3998 ± 0.022 kg/m3
25965 kPa
  mass density: 40.4011 ± 0.022 kg/m3 and 40.4013 ± 0.022 kg/m3
25966 kPa
  mass density: 40.402 ± 0.022 kg/m3
31576 kPa
  mass density: 47.9567 ± 0.033 kg/m3
